From paper PMC9906736, “Sodium-Dependent Neutral Amino Acid Transporter 2 Can Serve as a Tertiary Carrier for L-Type Amino Acid Transporter 1-Utilizing Prodrugs” (Molecular Pharmaceutics, 2023)
“Also recorded” adds a separate entry of the source.

Tests used:
LAT1 [1] = tested on: LAT1; set-up: unit not given here; conditions: CLint = Vmax/Km; cited from earlier work
LAT1 [2] = conditions: cited from earlier work; for IC50: ability to compete with natural LAT1-substrate L-Leu, read-out: IC50 (μM) of [^14C]-L-Leu Uptake; for LAT1 Properties (in words): merged cell over IC50, CLint and Kp columns
MCF-7 cells = experiment: Concentration-dependent cellular uptake into MCF-7 cells at various pH, with and without Na+; assay type: cell-based, human; conditions: for cellular uptake at pH 8.5 compared to pH 7.4 / cellular uptake at pH 8.5 in the absence of Na+ / cellular uptake at pH 5.5 compared to pH 7.4: 1–200 μM, 30 min; for cellular uptake at pH 8.5 in the absence of Na+: compared to presence of Na+; for Km: pH 8.5, read-out: Km(uM)@pH8.5
Description: MCF-7 human breast adenocarcinoma cells (HTB-22) were purchased from the American Type Culture Collection (ATCC, Manassas, VA, USA). MCF-7 cells were cultured in Dulbecco’s modified Eagle’s medium supplemented with L-glutamine (2.0 mM), heat-inactivated fetal bovine serum (10%), and penicillin (50 U/mL)–streptomycin (50 μg/mL) solution. MCF-7 cells (passages 8–25) were seeded at the density of 1 × 10^5 cells/well onto 24-well plates. The cells were used for the uptake experiments 1 day after seeding. All the studies were carried out as three biological replicates from the same cell passage.
For the following experiments, the MCF-7 cells were cultured, seeded, washed with HBSS, and preincubated as described above at the desired conditions (pH 5.5, 7.4, or 8.5, with and without Na^+). […] Subsequently, the cells were washed three times with ice-cold HBSS and lysed with 500 μL of 0.1 M NaOH (60 min). […] The cell-associated concentrations of each compound normalized to protein concentration were calculated from the standard curve that was prepared by spiking known concentrations of compounds to ACN including the selected internal standard (diclofenac to all studied compounds). The protein concentrations on each plate were determined as a mean of three samples by Bio-Rad Protein Assay based on the Bradford dye-binding method using BSA as a standard protein and measuring the absorbance (595 nm) by a multiplate reader (EnVision, PerkinElmer, Inc., Waltham, MA, USA).

[3] = brain accumulation; cited from earlier work
SNATs [4] = experiment: Competitive cellular uptake in the presence of unselective SNAT ligand MeAIB in MCF-7 cells; assay type: cell-based, human; conditions: 100 μM compound, 100 μM MeAIB, pH 7.4 or 8.5, 30 min
Description: The competitive uptake in the presence of unselective SNAT ligand, MeAIB (100 μM),[31],[32] was carried out as described above with HBSS buffer at pH 7.4 or pH 8.5 containing 100 μM of the studied compound. The cells were preincubated with the inhibitors for 10 min, and the incubation mixture was removed before adding the studied compound and the inhibitor to the cells. The competitive uptake (30 min) with the inhibitor was then carried out as the normal uptake described above. The concentrations of studied compounds were analyzed by the LC–MS/MS method and calculated from the spiked standard curve and normalized with the protein concentrations.

SNATs [5] = experiment: Functionality of SNATs in MCF-7 cells with [3H]-L-proline uptake; assay type: cell-based, human; conditions: for inhibition of the uptake of [^3H]-L-proline: MeAIB 100 μM
Description: After removal of the culture medium, MCF-7 cells were carefully washed with prewarmed HBSS (Hank’s balanced salt solution) containing 125.0 mM NaCl (or choline chloride in Na^+-free conditions), 4.8 mM KCl, 1.2 mM MgSO4, 1.2 mM KH2PO4, 1.3 mM CaCl2, 5.6 mM glucose, and 25.0 mM 4-(2-hydroxyethyl)piperazine-1-ethanesulfonic acid (HEPES) with pH adjusted to either 7.4 or 8.5 with 1 M NaOH (or KOH in sodium-free conditions). In the experiments at lower pH (4.5–6.5), 25.0 mM HEPES was replaced by 2-(N-morpholino)ethanesulfonic acid (MES), and pH was adjusted to 4.5, 5.5, and 6.5 by 1.0 M NaOH. Preincubation was done with 500 μL of prewarmed HBSS at 37 °C for 10 min before adding substrates (250 μL in HBSS) for the uptake experiments. The functionality of SNATs in MCF-7 cells was studied with a known SNAT substrate; the cells were incubated either with [^3H]-L-proline [1 μM (PerkinElmer, Waltham, MA, USA) in uptake buffer HBSS, 250 μL] at 37 °C for 1–60 min or with the uptake buffer (250 μL) consisting of 1–600 μM L-proline (containing 2 μCi [^3H]-L-proline) at 37 °C for 60 min.[38] After incubation, the uptake was stopped by adding 500 μL of ice-cold HBSS, and the cells were washed two times with ice-cold HBSS (2 × 500 μL). The cells were then lysed with 500 μL of 0.1 M NaOH (60 min), and the lysate was mixed with 3.5 mL of Emulsifier safe cocktail (Ultima Gold, PerkinElmer, Waltham, MA, USA). The radioactivity in the cells was measured by liquid scintillation counting (MicroBeta^2 counter, PerkinElmer Waltham, MA, USA). The concentrations of [^3H]-L-proline were calculated from the spiked standard curve at each pH and normalized with the protein concentrations. The SNAT-mediated uptake was confirmed by changing the pH of the uptake buffer in the absence of sodium ions and in the presence of unselective SNAT-ligand, MeAIB (100 μM).[31],[32]

| Structure (SMILES) | Intrinsic Clearance (CLint) of LAT1-mediated uptake (LAT1 [1]) | IC50 (LAT1 [2]) [µM] | cellular uptake at pH 8.5 compared to pH 7.4 (MCF-7 cells) | cellular uptake at pH 8.5 in the absence of Na+ (MCF-7 cells) | Km (MCF-7 cells) [µM] | in vivo Kp values (AUCbrain/ AUCplasma) [3] | cellular uptake in the presence of MeAIB (SNATs [4]) | cellular uptake at pH 5.5 compared to pH 7.4 (MCF-7 cells) | other results |
| --- | --- | --- | --- | --- | --- | --- | --- | --- | --- |
| N[C@@H](Cc1cccc(C(=O)OCc2ccc(-c3ccc(-c4ccc5c(c4)COC5=O)s3)cc2)c1)C(=O)O [Compound 1] | 47.1 | 1.54 ± 0.05 | much higher | decreased; also recorded: sodium-sensitive | 412 | 0.043 | decreased |  | Vmax of cellular uptake (MCF-7 cells; pH 5.5): 29 nmol/min/mg protein; cellular uptake, times higher at pH 5.5 compared to pH 7.4 (MCF-7 cells; ratio of Vmax): 3.9 times; cellular uptake, times higher at pH 8.5 compared to pH 7.4 (MCF-7 cells; ratio of Vmax): 9.3 times |
| CC(C(=O)Nc1cccc(C[C@H](N)C(=O)O)c1)c1cccc(C(=O)c2ccccc2)c1 (some centres unmarked) [Compound 2] | 11.2 | 0.54 ± 0.05 | did not affect | did not affect | 291 | 0.045 | did not affect | did not affect |  |
| CC(C(=O)Nc1ccc(C[C@H](N)C(=O)O)cc1)c1cccc(C(=O)c2ccccc2)c1 (some centres unmarked) [Compound 3] | 8.3 | 51.16 ± 0.1 | higher | increased | 131 | 0.050 | decreased | higher |  |
| CC(C(=O)NCc1cccc(C[C@H](N)C(=O)O)c1)c1cccc(C(=O)c2ccccc2)c1 (some centres unmarked) [Compound 4] | 4.5 | 0.12 ± 0.01 | much higher | sodium-sensitive | 40 | 0.017 | decreased |  |  |
| CC(C(=O)NCCCC[C@H](N)C(=O)O)c1cccc(C(=O)c2ccccc2)c1 (some centres unmarked) [Compound 5] | 1.3 | 82.7 ± 1.45 | much higher | sodium-sensitive | 102 | 0.022 | decreased |  |  |
| CC(C(=O)NCC[C@H](N)C(=O)O)c1cccc(C(=O)c2ccccc2)c1 (some centres unmarked) [Compound 6] |  | 89.1 ± 4.19 | decreased |  | 422 | 0.317 | decreased |  |  |
| COc1cc(/C=C/C(=O)Nc2cccc(C[C@H](N)C(=O)O)c2)ccc1O [Compound 7] |  | 1.1 ± 0.08 | much higher | sodium-sensitive | 184 | 0.082 | decreased |  |  |
| COc1cc(/C=C/C(=O)NCc2cccc(C[C@H](N)C(=O)O)c2)ccc1O [Compound 8] | 0.3 | 14.2 ± 0.91 | much higher | sodium-sensitive | 225 | 0.052 | decreased |  |  |
| N[C@@H](Cc1c[nH]c2ccccc12)C(=O)O [L-Trp, reference compound] | 146 | 50.5 ± 2.63 | did not affect | did not affect |  |  | did not affect | did not affect |  |
| CNC(C)(C)C(=O)O [MeAIB, α-(methylamino)isobutyric acid] |  |  |  |  |  |  |  |  | inhibition of the uptake of [^3H]-L-proline (SNATs [5]; [^3H]-L-proline 25 μM): negligible; inhibition of the uptake of [^3H]-L-proline (SNATs [5]; [^3H]-L-proline 50 and 100 μM): able to inhibit; LAT1 Properties (in words) (LAT1 [2]): Not an LAT1 substrate |
| CCCN(CCC)S(=O)(=O)c1ccc(C(=O)O)cc1 [PRB, probenecid, reference compound] |  |  | decreased |  |  |  | did not affect | increased | LAT1 Properties (in words) (LAT1 [2]): Not an LAT1 substrate |
| N[C@@H](Cc1cc(I)c(Oc2cc(I)c(O)c(I)c2)c(I)c1)C(=O)O [T4, thyroxin, reference compound] | 5.5 | 18 ± 1.41 | decreased |  |  |  | decreased | increased |  |
| O=C(O)[C@@H]1CCCN1 [[^3H]-L-proline] |  |  |  |  |  |  |  |  | Km (SNATs [5]; MCF-7 cells, 10–600 μM, 60 min): 1.47 ± 0.257 mM; Vmax of [^3H]-L-proline uptake (SNATs [5]; MCF-7 cells, 10–600 μM, 60 min): 1.13 ± 0.15 nmol/min/mg protein; pH dependency of uptake (SNATs [5]; MCF-7 cells, pH 4.5–8.5 in the presence of Na+): significant pH dependency; uptake in the absence of sodium (SNATs [5]; MCF-7 cells, pH 7.4): significantly reduced |
